According to PMC11643720, “Addressing the Evolution of Cardenolide Formation in Iridoid-Synthesizing Plants: Site-Directed Mutagenesis of PRISEs (Progesterone-5β-Reductase/Iridoid Synthase-like Enzymes) of Plantago Species” (Molecules, 2024):
Read-outs that look alike come from different tables or passages of the source.

Columns and labels:
[1] = test system: T1, rPmdP5βR1 (PmdP5βR1, PmdP5βR); experiment: NADPH oxidation at […] nm, Michaelis-Menten; assay type: biochemical, Plantago media; settings: 0.2 mM NADPH, phosphate buffer pH 8.0, 40 °C, SD < 25%
T1 construct: gene P5βR1; full-length CDS 1170 bp, 389 aa; pDEST17, N-terminal 6xHis tag, E. coli SoluBL21 (mutants BL21(DE3)), Ni-NTA; printed WKF numbers of the two species may be swapped; wild type has F156 and A346

[2] = test system: T2, rPlP5βR1 (PlP5βR1, PlP5βR); experiment: NADPH oxidation at […] nm, Michaelis-Menten; assay type: biochemical, Plantago lanceolata; settings: 0.2 mM NADPH, phosphate buffer pH 8.0, 40 °C, SD < 25%, read-out: rPlP5βR1 / DMT
T2 construct: gene P5βR1; full-length CDS 1170 bp, 389 aa; pDEST17, N-terminal 6xHis tag, E. coli SoluBL21 (mutants BL21(DE3)), Ni-NTA; printed WKF numbers of the two species may be swapped; wild type has L156 and L346 (abstract misprints A156, F346)

[3] = test system: T2, rPlP5βR1 (PlP5βR1, PlP5βR); experiment: NADPH oxidation at […] nm, Michaelis-Menten; assay type: biochemical, Plantago lanceolata; settings: 0.2 mM NADPH, phosphate buffer pH 8.0, 40 °C; SD < 25%
[4] = test system: T1, rPmdP5βR1 (PmdP5βR1, PmdP5βR); experiment: NADPH oxidation at […] nm, Michaelis-Menten; assay type: biochemical, Plantago media; settings: 0.2 mM NADPH, phosphate buffer pH 8.0, 40 °C, SD < 25%, read-out: rPmdP5βR1 / DMT
[5] = test system: T2, rPlP5βR1 (PlP5βR1, PlP5βR); experiment: NADPH oxidation at […] nm, Michaelis-Menten; assay type: biochemical, Plantago lanceolata; settings: 0.2 mM NADPH, phosphate buffer pH 8.0, 40 °C, SD < 25%, read-out: rPlP5βR1 / L156F
[6] = test system: T3, rPmdP5βR1 (PmdP5βR1, PmdP5βR); settings: read-out: rPmdP5βR1 / F156L; 0.2 mM NADPH, phosphate buffer pH 8.0, 40 °C, DMSO added at 0.4-0.6 mM progesterone; SD < 25%
T3 construct: gene P5βR1

[7] = test system: T4, rPlP5βR1 (PlP5βR1, PlP5βR); settings: read-out: rPlP5βR1 / L346A; 0.2 mM NADPH, phosphate buffer pH 8.0, 40 °C, DMSO added at 0.4-0.6 mM progesterone; SD < 25%
T4 construct: gene P5βR1

[8] = test system: T3, rPmdP5βR1 (PmdP5βR1, PmdP5βR); settings: read-out: rPmdP5βR1 / A346L; 0.2 mM NADPH, phosphate buffer pH 8.0, 40 °C, DMSO added at 0.4-0.6 mM progesterone; SD < 25%
[9] = DMSO added at 0.4-0.6 mM progesterone

C/C(C=O)=C\CC/C(C)=C/C=O [8-oxogeranial]
Km [1]: 19 µM | Km [2]: 10 µM | Km [3]: 100 µM | Km [4]: 7 µM

O=C1C=CCCC1 [2-cyclohexen-1-one]
Km [1]: 46 µM | Km [5]: 16 µM | Km [3]: 66 µM

C=CC(C)=O [methyl vinyl ketone]
Km [1]: 33 µM | Km [2]: 216 µM | Km [3]: 100 µM

CC(=O)[C@H]1CC[C@H]2[C@@H]3CCC4=CC(=O)CC[C@]4(C)[C@H]3CC[C@]12C [progesterone]
Km [1, 9]: 67 µM | Km [2, 9]: 44 µM | Km [6]: 128 µM | Km [7]: 170 µM | Km [5, 9]: 451 µM | Km [8]: 218 µM | Km [4, 9]: 587 µM
